Consider 9 compounds from US5541163A, “Renin inhibiting N-(2-amino-2-oxoethyl)butanediamide derivatives” (Bio-Mega/Boehringer Ingelheim Research Inc., priority 1993, dated 1996).

What is called IC50 is the concentration that inhibits the measured activity by half. Read a high IC50 as weaker potency.

For this experiment, the target named is T1, human renin (Homo sapiens, UniProt P00797).
T1 construct: A human plasma pool is used as the source of both the substrate (angiotensinogen) and the enzyme (renin); from tissue; host or cells: human plasma pool
T1 sequence (P00797 67-406): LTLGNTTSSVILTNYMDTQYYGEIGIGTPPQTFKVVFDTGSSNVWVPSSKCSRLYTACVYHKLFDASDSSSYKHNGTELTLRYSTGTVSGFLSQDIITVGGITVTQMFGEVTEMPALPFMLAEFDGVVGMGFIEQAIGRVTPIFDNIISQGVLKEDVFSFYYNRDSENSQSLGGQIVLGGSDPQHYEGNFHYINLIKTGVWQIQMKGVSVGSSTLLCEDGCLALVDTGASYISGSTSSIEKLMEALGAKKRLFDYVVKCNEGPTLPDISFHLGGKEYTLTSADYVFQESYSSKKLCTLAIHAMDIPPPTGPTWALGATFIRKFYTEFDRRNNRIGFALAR
The experiment is described as follows: Plasma renin assay (inhibition of human renin, angiotensin I by RIA). The conditions noted are these: human plasma pool, pH 6.0, 2 h incubation at 37°. It is filed as biochemical. As to the method: The assay is performed as follows: The test compound (i.e. the inhibitor) is dissolved in dimethylsulfoxide (1 mM stock solution) and diluted with an aqueous buffer solution of 270 mM 2-(N-morpholino)ethanesulfonic acid and 1% human serum albumin (pH 5.85, also containing dimercaprol and 8-hydroxyquinoline sulfate in accordance with the instructions of the RIA kit noted below) to give an assay mixture in which the final dimethylsulfoxide content is 1% (v/v).
A human plasma pool is used as the source of both the substrate (angiotensinogen) and the enzyme (renin). The reaction is initiated by the addition of 50 μL of human plasma pool to 50 μL of various concentrations of inhibitor in the 1% dimethylsulfoxide assay buffer. The plasma renin activity is measured by the amount of angiotensin I generated at pH 6.0 following a 2 h incubation at 37°.
Quantitation of angiotensin I is performed by radioimmunoassay (RIA kit from New England Nuclear-Dupont, Mississauga, ON, Canada). The enzymatic activity of renin is expressed in ng of angiotensin I generated (/mL/2 h). The extent of inhibition of the reaction is determined from the amount of angiotensin I generated in reference to a control prepared without inhibitor. Nonlinear regression analysis is used to calculate the IC50 values, i.e. the molar concentration of the test compound required to cause a 50% inhibition of the enzyme activity.
Consider `CC(C)C[C@H](O)[C@H](O)[C@H](CC1CCCCC1)NC(=O)[C@@H](CC(=O)N(CC(=O)N(C)C)Cc1ccccn1)CC1CC1` [Compound 13, N^4-[2-(dimethylamino)-2-oxoethyl]-N^4-(2-pyridinylmethyl)-N^1-[1(S)-(cyclohexylmethyl)-2(R),3(S)-dihydroxy-5-methylhexyl]-2(R)-(cyclopropylmethyl)butanediamide], for which inhibition was half-maximal at 120 nM (IC50).
As for `CC(C)C[C@H](O)[C@H](O)[C@H](CC1CCCCC1)NC(=O)[C@@H](CC(=O)N(CC(=O)N(C)C)[C@@H](C)c1ccccc1)CC1CC1` [Compound 17, N^4-[2-(dimethylamino)-2-oxoethyl]-N^4-[1(S)-phenylethyl]-N^1-[1(S)-(cyclohexylmethyl)-2(R),3(S)-dihydroxy-5-methylhexyl]-2(R)-(cyclopropylmethyl)butanediamide], the figure is 34 nM; as for `CC(C)C[C@H](O)[C@H](O)[C@H](CC1CCCCC1)NC(=O)[C@@H](CC(=O)N(CC(=O)N(C)C)Cc1ccccc1)CC1CC1` [Compound 2, N^4-benzyl-N^4-[2-(dimethylamino)-2-oxoethyl]-N^1-[1(S)-(cyclohexylmethyl)-2(R),3(S)-dihydroxy-5-methylhexyl]-2(R)-(cyclopropylmethyl)butanediamide], 56 nM.
For `CCN(CC)CCN(C)C(=O)CN(C(=O)C[C@@H](CC1CC1)C(=O)N[C@@H](CC1CCCCC1)[C@@H](O)[C@@H](O)CC(C)C)[C@@H](C)c1ccccc1` [Compound 24, N^4 -{2-{[2-(diethylamino)ethyl]methylamino}-2-oxoethyl}-N^4-[1(S)-phenylethyl]-N^1-[1(S)-(cyclohexylmethyl)-2(R),3(S)-dihydroxy-5-methylhexyl]-2(R)-(cyclopropylmethyl)-butanediamide], the IC50 stood at 61 nM.
`CC(C)C[C@H](O)[C@H](O)[C@H](CC1CCCCC1)NC(=O)[C@@H](CC(=O)N(CC(=O)N1CCOCC1)CC1CCCCC1)Cc1ccccn1` [Compound 67, N^4-(cyclohexylmethyl)-N^4-(2-morpholino-2-oxoethyl)-N^1-[1(S)-(cyclohexylmethyl)-2(R),3(S)-dihydroxy-5-methylhexyl]-2(R)-(2-pyridinylmethyl)butanediamide] displayed an IC50 of 4 nM.
As for `CC(C)C[C@H](O)[C@H](O)[C@H](CC1CCCCC1)NC(=O)[C@@H](CC(=O)N(CCc1ccccn1)CC(=O)N(C)C)CC1CC1` [Compound 51, N^4-[2-(dimethylamino)-2-oxoethyl]-N^4-[2-(2-pyridinyl)ethyl]-N^1-(1(S)-(cyclohexylmethyl)-2(R),3(S)-dihydroxy-5-methylhexyl]-2(R)-(cyclopropylmethyl)butanediamide], the figure is 145 nM; as for `CCC(CC)CN(CC(=O)N(C)CCc1ccccn1)C(=O)C[C@@H](Cc1csc(N)n1)C(=O)N[C@@H](CC1CCCCC1)[C@@H](O)[C@@H](O)CC(C)C` [Compound 84, N^4-(2-ethylbutyl)-N^4 -{2-{methyl[2-(2-pyridinyl)ethyl]amino}-2-oxoethyl}-N^1-[1(S)-(cyclohexylmethyl)-2(R),3(S)-dihydroxy-5-methylhexyl]-2(R)-[(2-amino-4-thiazolyl)methyl]-butanediamide], 3 nM; as for `CC(C)C[C@H](O)[C@H](O)[C@H](CC1CCCCC1)NC(=O)[C@@H](CC(=O)N(CC(=O)N(C)C)C[C@@H](C)c1ccccc1)CC1CC1` [Compound 20, N^4-[2-(dimethylamino)-2-oxoethyl]-N^4-(2(S)-phenylpropyl]-N^1-(1(S)-(cyclohexylmethyl)-2(R),3(S)-dihydroxy-5-methylhexyl]-2(R)-(cyclopropylmethyl)butanediamide], 37 nM.
`CC(C)C[C@H](O)[C@H](O)[C@H](CC1CCCCC1)NC(=O)[C@@H](CC(=O)N(CC(=O)N(C)CCc1ccncc1)Cc1ccccc1)CC1CC1` [Compound 29, N^4-benzyl-N^4 -{2-{methyl[2-(4-pyridinyl)ethyl]amino}-2-oxoethyl}-N^1-[1(S)-(cyclohexylmethyl)-2(R)3(S)-dihydroxy-5-methylhexyl]-2(R)-(cyclopropylmethyl)butanediamide] gave an IC50 of 68 nM.
